# Data: patent US6399614B1, “1-(N-phenylaminoalkyl)piperazine derivatives substituted at position 2 of the phenyl ring” (Recordati S.A. Chemical and Pharmaceutical Company, priority 1997, dated 2002)
# Where two headings read alike, the source gives them in different places.
# Columns and labels:
# [1] = test system: rhythmic bladder voiding contractions; assay: Volume-induced rhythmic bladder voiding contractions in anaesthetized rats; assay type: in vivo, rat; details: Rattus norvegicus; for ED (10 min disappearance of contractions): read-out: ED10 min
# Description: Female Sprague Dawley rats weighing 225-275 g (Crl: CDo BR, Charles River Italia) were used. The animals were housed with free access to food and water and were maintained on a forced 12 h alternating light-dark cycle at 22-24° C. for at least one week, except during the experiment. The activity on the rhythmic bladder voiding contractions was evaluated according to the method of Dray (J. Pharmacol. Methods, 13:157, 1985), with some modifications as in Guarneri (Pharmacol. Res., 27:173, 1993). Briefly, rats were anesthetized by subcutaneous injection of 1.25 g/kg (5 ml/kg) urethane, after which the urinary bladder was catheterized via the urethra using PE 50 polyethylene tubing filled with physiological saline. The catheter was tied in place with a ligature around the external urethral orifice and was connected with conventional pressure transducers (Statham P23 ID/P23 XL). […] The bladder was then filled via the recording catheter by incremental volumes of warm (37° C.) saline until reflex bladder voiding contractions occurred (usually 0.8-1.5 ml). For intravenous (i.v.) injection of bioactive compounds, PE 50 polyethylene tubing filled with physiological saline was inserted into the jugular vein. From the cystometrogram, the number of contractions recorded 15 min before (basal values) and after treatment, as well as the mean amplitude of these contractions (mean height of the peaks in mmHg) was evaluated.
# Since most compounds produced an effect that was relatively rapid in onset and led to a complete cessation of bladder contractions, bioactivity was conveniently estimated by measuring the duration of bladder quiescence (i.e., the duration of time during which no contractions occurred). The number of animals tested showing a reduction in the number of contractions >30% of that observed in the basal period was also recorded.
# Also computed in this manner were extrapolated doses which induced a reduction of the number of contractions of greater than 30% in 50% of treated rats (ED50, frequency) by the method of Bliss (Bliss C. I., Quart. J. Pharm. Pharmacol. 11, 192-216, 1938). After the suppressive effects of drug injection wore off, the height of the contractile peaks was compared with the height of the peaks previously recorded after the control intravenous administration of vehicle. The potency of the tested compounds (ED50 value: the extrapolated doses inducing a 30% reduction of amplitude of the contractions in 50% of treated rats) was evaluated on a quantal basis by the method of Bliss (Bliss C. I., Quart. J. Pharm. Pharmacol. 11, 192-216, 1938).
# [2] = target: T1, human 5-HT1A serotonergic receptor (Homo sapiens, UniProt P08908); assay: Radioreceptor binding, recombinant human 5-HT1A receptors ([3H]8-OH-DPAT, HeLa membranes); details: recombinant human receptor, [3H]8-OH-DPAT; Ki from IC50 by Cheng & Prusoff; read-out: Binding affinity for the 5-HT1A receptor, Ki
# T1 construct: expressed in transfected cells; host or cells: HeLa
# T1 sequence (P08908 1-422): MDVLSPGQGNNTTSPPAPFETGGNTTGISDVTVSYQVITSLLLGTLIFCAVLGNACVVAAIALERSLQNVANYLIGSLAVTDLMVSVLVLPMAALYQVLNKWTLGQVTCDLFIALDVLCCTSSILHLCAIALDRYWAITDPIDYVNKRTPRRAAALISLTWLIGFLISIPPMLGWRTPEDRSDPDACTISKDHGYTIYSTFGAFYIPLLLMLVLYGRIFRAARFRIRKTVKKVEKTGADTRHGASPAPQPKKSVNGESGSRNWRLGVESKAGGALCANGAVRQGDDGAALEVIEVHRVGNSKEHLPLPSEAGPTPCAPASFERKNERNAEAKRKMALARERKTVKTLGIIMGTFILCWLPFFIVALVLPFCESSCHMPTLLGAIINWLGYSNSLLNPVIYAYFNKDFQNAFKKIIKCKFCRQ
# Description: Genomic clone G-21 coding for the human 5-HT1A serotonergic receptor is stably transfected in a human cell line (HeLa). HeLa cells were grown as monolayers in Dulbecco's modified Eagle's medium (DMEM), supplemented with 10% fetal calf serum and gentamicin ([…]), 5% CO2 at 37° C. Cells were detached from the growth flask at 95% confluence by a cell scraper and were lysed in ice-cold 5 mM Tris and 5 mM EDTA buffer (pH 7.4). Homogenates were centrifuged at 40000×g×20 min and pellets were resuspended in a small volume of ice-cold 5 mM Tris and 5 mM EDTA buffer (pH 7.4) and immediately frozen and stored at −70° C. until use. On the day of experiment, cell membranes were resuspended in binding buffer: 50 mM Tris HCl (pH 7.4), 2.5 mM MgCl2, 10 μM pargiline (Fargin et al., Nature 335, 358-360, 1988). Membranes were incubated in a final volume of 1 ml for 30 min at 30° C. with 0.2-1 nM [3H]8-OH-DPAT, in absence or presence of competing drugs; non-specific binding was determined in the presence of 10 μM 5-HT. The incubation was stopped by addition of ice-cold Tris-HCl buffer and rapid filtration through 0.2% polyethyleneimine pretreated Whatman GF/B or Schleicher & Schuell GF52 filters.
# The inhibition of specific binding of the radioligands by the tested drugs was analyzed to estimate the IC50 value by using the non-linear curve-fitting program Allfit (De Lean et al., Am. J. Physiol. 235, E97-E102, 1978). The IC50 value was converted to an affinity constant (Ki) by the equation of Cheng & Prusoff (Cheng, Y. C.; Prusoff, W. H. Biochem. Pharmacol. 22, 3099-3108, 1973).
# [3] = test system: urinary bladder; assay: Cystometric parameters (cystometrogram) in conscious rats; assay type: in vivo, rat; details: for BVC after treatment / MP after treatment: mean ± S.E.; for change in vivo at 0.3 mg/kg / change in vivo at 1 mg/kg / change in vivo at 0.1 mg/kg: Rattus norvegicus, iv, 0.25 h, after vs before; for change in vivo at 0.3 mg/kg: i.v. 300 μg/kg; for change in vivo at 1 mg/kg: i.v. 1000 μg/kg; for change in vivo at 0.1 mg/kg: i.v. 100 μg/kg
# Description: Male Sprague Dawley rats (Crl: CDo BR) weighing 250-350 g were used. The animals were housed with free access to food and water and maintained on a forced 12 h alternating light-dark cycle at 22-24° C. for at least one week, except during performance of the experiment. To quantify urodynamic parameters in conscious rats, cystometrographic studies were performed using procedures previously described (Guarneri et al., Pharmacol. Res., 24:175, 1991). […] An approximately 10 mm long midline incision was made in the shaved and cleaned abdominal wall. The urinary bladder was gently freed from adhering tissues, emptied, and then cannulated, via an incision at the dome, with a polyethylene cannula (Portex PP30), which was permanently sutured with silk thread. The cannula was exteriorized through a subcutaneous tunnel in the retroscapular area, where it was connected with a plastic adapter to avoid the risk of removal by the animal. For intravenous (i.v.) injection of test compounds, a PE 50 polyethylene tubing filled with physiological saline was inserted into the jugular vein and exteriorized in the retroscapular area. The rats were utilized exclusively one day after implantation. On the day of the experiment, the rats were placed in Bollman's cages, after a stabilization period of 20 min, and the free tip of the bladder catheter was connected through a T-shaped tube to a pressure transducer (Bentley T 800/Marb P 82) and to a peristaltic pump (Gilson minipuls 2) for a continuous infusion, at the constant rate of 0.1 ml/min, of saline solution into the urinary bladder. The intraluminal pressure signal during infusion was continuously recorded on a polygraph (Battaglia Rangoni KO 380 with ADCl/T amplifier).
# Two urodynamic parameters were evaluated: bladder volume capacity (BVC) and micturition pressure (MP). BVC (in ml) is defined as the minimum volume infused after which detrusor contraction (followed by micturition) occurs. MP (in mm Hg) is defined as the maximal intravesical pressure induced by the contraction of detrusor during micturition. Basal BVC and MP values were calculated as the means of the first two recorded cystometrograms. At this point in the assay, the infusion was interrupted and the test compounds were administered. Fifteen minutes after intravenous administration two additional cystometrograms were recorded in each animal and the mean values of the two cystometrographic parameters were calculated. The statistical significance of the differences in urodynamic parameter values was evaluated by Student's t test for paired data.
# [4] = extrapolated dose inducing 10 min of disappearance of the contractions, intravenous, anaesthetized rats
# [5] = extrapolated dose inducing a reduction of the number of contractions >30% in 50% of treated rats, intravenous, read-out: ED50 (frequency)
Structure (SMILES),"ED (10 min disappearance of contractions) [1, 4] [mg/kg]","ED50 [1, 5] [mg/kg]",Ki [2] [nM],BVC after treatment ([3]; 15 min after i.v. 300 μg/kg) [mL],MP after treatment ([3]; 15 min after i.v. 300 μg/kg) [mmHg],BVC after treatment ([3]; 15 min after i.v. 1000 μg/kg) [mL],change in vivo at 0.3 mg/kg ([3]; read-out: MP % of change) [%],further results
"COc1ccccc1N1CCN(CCNc2ccccc2C#N)CC1 [Example 10, 1-[N-(2-cyanophenyl)-2-aminoethyl]-4-(2-methoxyphenyl)piperazine]",0.122,0.028,17.2,–,–,–,–,–
"COc1ccccc1N1CCN(CCNc2ccccc2C(C)=O)CC1 [Example 11, 1-[N-(2-acetylphenyl)-2-aminoethyl]-4-(2-methoxyphenyl)piperazine]",0.318,0.04,2.92,–,–,–,–,–
"COc1ccccc1NCCN1CCN(c2ccccc2OC)CC1 [Example 20, 1-[N-(2-methoxyphenyl)-2-aminoethyl]-4-(2-methoxyphenyl)piperazine]",–,–,24.6,–,–,–,–,"ED (10 min disappearance of contractions) ([1]; iv): 0.097 mg/kg; ED50 ([1]; iv, read-out: ED50 (frequency)): 0.025 mg/kg"
"COc1ccccc1N1CCN(CCN(C(=O)C2CCCCC2)c2ccccc2N)CC1 [Example 27, 1-[N-(2-aminophenyl)-N-cyclohexylcarbonyl-2-aminoethyl]-4-(2-methoxyphenyl) piperazine]",0.131,0.013,0.57,–,–,–,–,–
"COc1ccccc1N1CCN(CCN(C(=O)C2CCCCC2)c2ccccc2OCC(F)(F)F)CC1 [Example 42, 1-[N-[2-(2,2,2-trifluoroethoxy)phenyl]-N-cyclohexylcarbonyl-2-aminoethyl]-4-(2-methoxyphenyl)piperazine]",0.033,0.018,–,0.89 ± 0.15,66.5 ± 9.9,1.00 ± 0.16,-20,MP after treatment ([3]; 15 min after i.v. 1000 μg/kg): 70.3 ± 7.8 mmHg; change in vivo at 0.3 mg/kg ([3]; read-out: BVC % of change): 26.4%; change in vivo at 1 mg/kg ([3]; read-out: BVC % of change): 41.7%; change in vivo at 1 mg/kg ([3]; read-out: MP % of change): -9.2%
"COc1ccccc1N1CCN(CCN(C(=O)C2CCCCC2)c2ccccc2C#N)CC1.Cl [Example 43, 1-[N-(2-cyanophenyl)-N-cyclohexylcarbonyl-2-aminoethyl]-4-(2-methoxyphenyl)piperazine Hydrochloride]",0.052,0.004,–,–,–,–,–,–
"COc1ccccc1NCCN1CCN(c2cccc3[nH]ccc23)CC1 [Example 47, 1-[N-(2-methoxyphenyl)-2-aminoethyl]-4-(4-indolyl)piperazine]",0.181,0.02,2.33,–,–,–,–,–
"COc1ccccc1N(CCN1CCN(c2cccc3[nH]ccc23)CC1)C(=O)C1CCCCC1 [Example 48, 1-[N-cyclohexylcarbonyl-N-(2-methoxyphenyl)-2-aminoethyl]-4-(4-indolyl)piperazine]",0.04,0.014,0.46,–,–,–,–,–
"Cc1c(-c2ccccc2)oc2c(C(=O)OCCN3CCCCC3)cccc2c1=O [Flavoxate, flavoxate, reference compound]",> 10,–,–,0.87 ± 0.11,95.0 ± 10.9,1.11 ± 0.16,6.5,"MP after treatment ([3]; 15 min after i.v. 1000 μg/kg): 80.1 ± 11.1 mmHg; change in vivo at 0.3 mg/kg ([3]; read-out: BVC % of change): 14.5%; change in vivo at 1 mg/kg ([3]; read-out: BVC % of change): 26.1%; change in vivo at 1 mg/kg ([3]; read-out: MP % of change): -11.4%; i.v. dose at which a significant increase in BVC was observed ([3]; conscious rats, i.v.): 1.0 mg/kg"
"CCN(CC)CC#CCOC(=O)C(O)(c1ccccc1)C1CCCCC1 (stereo not shown) [Oxybutinin, oxybutynin, reference compound]",7.77,> 10,–,0.83 ± 0.12,50.5 ± 6.3,1.00 ± 0.18,-38.6,"ED50 ([1]; extrapolated dose inducing 30% reduction of amplitude of the contractions in 50% of treated rats, intravenous, n.a. = not active, no significant reduction of the height of peaks, read-out: ED50 (amplitude)): 0.24 mg/kg; BVC after treatment ([3]; 15 min after i.v. 100 μg/kg): 0.89 ± 0.18 mL; MP after treatment ([3]; 15 min after i.v. 100 μg/kg): 77.4 ± 10.3 mmHg; change in vivo at 0.1 mg/kg ([3]; read-out: BVC % of change): 8.5%; change in vivo at 0.1 mg/kg ([3]; read-out: MP % of change): -18.7%; effect on MP (in words) ([3]; conscious rats, i.v.): markedly and dose-dependently decreased MP"
